# Test results reported in patent US20210395327A1, “Growth Hormone-Releasing Hormone Antagonists and Uses Thereof” (United States Government As Represented By The Department …, priority 2019, published 2021).
# Non-standard residues stand in square brackets, D forms with d. Residues, ends and D or L forms follow the SMILES beside them. *: point of attachment. Phenylacetyl(2,3,4,5,6-F5) = O=C(Cc1c(F)c(F)c(F)c(F)c1F)*; Phe(F5) = N[C@@H](Cc1c(F)c(F)c(F)c(F)c1F)C(=O)O; hArg = N=C(N)NCCCC[C@H](N)C(=O)O; 12Ado = NCCCCCCCCCCCC(=O)O; Nle = CCCC[C@H](N)C(=O)O; Orn = NCCC[C@H](N)C(=O)O; Abu = CC[C@H](N)C(=O)O; PhAc = O=C(Cc1ccccc1)*
# Tests used:
# [1] = tested on: OVCAR-3 ovarian cancer cells; assay: In vitro cell viability, OVCAR-3; type: cell-based, human; settings: Table 3B; * at 2 μM for 72 H; MIA-602 = 1
# Description: The inhibitory effects of the various synthesized GHRH antagonists were tested in cell proliferation assays in various human cancer cell lines including stomach cancer (KATOIII, N87), colon cancer (HT-29), urothelial cancer (J82, RT4), pancreatic cancer (PANC-1, CFPAC-1), prostatic cancer (PC3), breast cancer (MX-1, HCC1806), ovarian cancer (SK-OV-3, OVCAR-3) and lung cancer (HCC827, H460).
# (§1) Cell culture. Human cancer cell lines including pancreatic (PANC-1 and CFPAC-1), lung (HCC827 and H460), stomach (NCI-N87 and KATOIII), urothelial (J82, RT4), prostatic (PC3), breast (MX-1 and HCC 1806), colorectal (HT-29), and ovarian (SK-OV-3 and OVCAR-3) were obtained from the American Type Culture Collection (ATCC) and cultured at 37° C. in a humidified 95% air/5% CO2 atmosphere in the medium recommended by ATCC.
# In vitro cell viability. Cell viability was analyzed as follows: cancer cells including pancreatic (PANC-1 and CFPAC-1), lung (HCC827 and H460), stomach (NCI-N87 and KATOIII), urothelial (J82, RT4), prostatic (PC3) and breast (MX-1 and HCC 1806), colorectal (HT-29) and ovarian (SK-OV-3 and OVCAR-3) were grown on 96 well plates to ˜60% confluence, the cells were starved for 24 h in culture medium containing 0.5% FBS. Cells were then treated with GHRH antagonists MIA602 AVR compounds at concentrations of 1, 2.5 or 5 μM, or vehicle (0.1% DMSO) in quintuplicates for 72 hours. The medium was replaced every 48 hours. Cell viability was measured using CellTiter 96 aqueous one solution kit (Promega). Inhibitory effects of tested AVR compounds in comparison to that of MIA602 are presented as inhibitory potency.
# Inhibitory effects of selected AVR compounds in comparison to that of MIA602 are presented as inhibitory potency (e.g., percentage of inhibition). […] The cell lines tested including lung cancer HCC827 (FIG. 2A), pancreatic cancer CFPAC-1 (FIG. 2B), stomach cancer N87 (FIG. 2C), colon cancer HT-29 (FIG. 2D), breast cancers MX-1 and HCC1806 (FIGS. 2 E, F). […]
# [2] = tested on: lung cancer H460 xenograft; assay: Xenograft tumor growth in nude mice, H460; type: in vivo; settings: Table 4H, Lung Ca H460, 4 weeks, 5 μg/day s.c.; for % Inhibition: vs control
# Description: (§2) The peptides' activity was compared with GHRH antagonist MIA-602. All statistical analyzses were performed from comparing GHRA antagonists to non-treated tumor (control).
# (§3) Peptides and chemicals. GHRH antagonists MIA-602 and AVR-GHRH antagonists (see Table 2 above) were synthesized by solid phase methods and purified by HPLC. The peptides were dissolved in DMSO and further diluted in 10% 1,2-propanediol. The final concentration of peptides was 50 µg/ml in 10% 1,2-propanediol containing 0.1% of DMSO.
# as §1, with “(NCI-N87), prostate” for “(NCI-N87 and KATOIII), urothelial (J82, RT4), prostatic”, “brest” for “breast”, “HCC-1806),” for “HCC 1806),”
# (§4) Xenograft models of human cancers in nude mice. Female athymic (NCr nu/nu) nude mice, 5- to 6-weeks-old, obtained from the Envigo labs (Tampa, Fla.), were housed in laminar airflow cabinets under pathogen-free conditions with a 12-h light/12-h dark schedule, and were fed autoclaved standard chow and water. To generate mice with xenografted tumors, tumor xenografts were initiated by subcutaneous (s.c.) injection of 107 human cancer cells into female nude mice. After about 4 weeks the resulting tumors were dissected and collected after removing necrosis tissues. The tumors were then cut into particles with size of 3 mm3 and transplanted s.c. by trocar needle into experimental animals. When tumors grew to the size of 50-60 mm3 (by volume), mice were randomized into groups and treated daily for 4-8 weeks by subcutaneous administration of 5 μg of GHRH antagonists MIA-602 or AVR-compounds (2-10 μg as indicated), or vehicle solutions (0.1% DMSO in 10% 1,2-propanediol) respectively. Tumor sizes were measured weekly.
# (§5) Statistical analysis. One-way ANOVA followed by Bonferroni comparison were performed. Data are expressed as Mean±SEM. To determine statistical significance between animal groups, two-tailed Student's t-test was conducted. Differences were considered significant when p<0.05.
# (§6) Results. […] FIG. 1A-N represents in vivo inhibition of tumor growth during the treatment with GHRH antagonist MIA-602 and selected AVR antagonists in nude mice xenografted with various human tumors including pancreatic cancer PANC-1 (FIG. 1A) and CFPAC-1 (FIG. 1I); lung cancer HCC827 (FIGS. 1B, C) and H460 (FIG. 1H); stomach cancer N87 (FIGS. 1D-F); colon cancer HT-29 (FIG. 1G); breast cancer MX-1 and HCC-1806 (FIGS. 1J, K); ovarian cancer SK-OV-3 and OVACAR-3 (FIGS. 1 L, M) and prostate cancer PC3 (FIG. 1N). See also Table 5.
# [3] = tested on: breast cancer HCC-1806 xenograft; assay: Xenograft tumor growth in nude mice, HCC-1806; type: in vivo; settings: Table 4K, Breast Ca HCC-1806, 5 weeks, 5 μg/day s.c.; for % Inhibition: vs control
# Description: as §2, §3
# as §1, with “(NCI-N87), prostate” for “(NCI-N87 and KATOIII), urothelial (J82, RT4), prostatic”, “brest” for “breast”, “HCC-1806),” for “HCC 1806),”
# as §4, §5, §6
# [4] = tested on: HCC1806 breast cancer cells; assay: In vitro cell viability, HCC1806; type: cell-based, human; settings: for In vitro relative inhibitory potency in comparison to MIA-602, HCC-1806: Table 3B, 5 μM for 72 H, MIA-602 = 1
# Summary of the method: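 Human tumour lines were exposed to GHRH antagonist at 1, 2.5 or 5 μM for 72 h with medium refreshed every 48 h, after 24 h in low-serum (0.5% FBS) medium. Cell viability (CellTiter 96) was expressed as inhibition relative to MIA602.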
# [5] = tested on: ovarian cancer OVCAR-3 xenograft; assay: Xenograft tumor growth in nude mice, OVCAR-3; type: in vivo; settings: Table 4M, Ovarian Ca OVCAR-3, 9 weeks; for % Inhibition: vs control
# Description: as §2, §3
# as §1, with “(NCI-N87), prostate” for “(NCI-N87 and KATOIII), urothelial (J82, RT4), prostatic”, “brest” for “breast”, “HCC-1806),” for “HCC 1806),”
# as §4, §5, §6
# [6] = tested on: pancreatic cancer CFPAC-1 xenograft; assay: Xenograft tumor growth in nude mice, CFPAC-1; type: in vivo; settings: Table 4I, Pancreatic Ca CFPAC-1, 7 weeks; for % Inhibition: vs control
# Description: as §2, §3
# as §1, with “(NCI-N87), prostate” for “(NCI-N87 and KATOIII), urothelial (J82, RT4), prostatic”, “brest” for “breast”, “HCC-1806),” for “HCC 1806),”
# as §4, §5, §6
# [7] = tested on: colon cancer HT-29 xenograft; assay: Xenograft tumor growth in nude mice, HT-29; type: in vivo; settings: Table 4G, Colon Ca HT-29, 6 weeks, 5 μg/day s.c.
# Description: as §2, §3
# as §1, with “(NCI-N87), prostate” for “(NCI-N87 and KATOIII), urothelial (J82, RT4), prostatic”, “brest” for “breast”, “HCC-1806),” for “HCC 1806),”
# as §4, §5, §6
Structure (SMILES),"In vitro relative inhibitory potency in comparison to MIA-602, OVCAR-3 [1]",Tumor Growth % [2] [%],% Inhibition [2] [%],Tumor Growth % [3] [%],% Inhibition [3] [%],"In vitro relative inhibitory potency in comparison to MIA-602, HCC-1806 [4]",Tumor Size (mm3) ([5]; 2.5 μg/day s.c.),% Inhibition ([5]; 2.5 μg/day s.c.) [%],Tumor Size (mm3) ([5]; 5 μg/day s.c.),% Inhibition ([5]; 5 μg/day s.c.) [%],Tumor Growth % ([6]; 2.5 μg/day s.c.) [%],% Inhibition ([6]; 2.5 μg/day s.c.) [%],Tumor Growth % ([6]; 5 μg/day s.c.) [%],% Inhibition ([6]; 5 μg/day s.c.) [%],"relative inhibitory potency in comparison to MIA-602, Breast IICC1806 ([4]; antagonist 5 μM for 72 h, cell proliferation assay, MIA602 = 1)",Tumor Size (mm^3) [7] [mm^3],% Inhibition ([7]; vs control) [%]
"CCCC[C@H](NC(=O)[C@@H](NC(=O)[C@H](CC(=O)O)NC(=O)[C@H](CCC(N)=O)NC(=O)[C@H](CC(C)C)NC(=O)[C@H](CC(C)C)NC(=O)[C@H](CCCCN)NC(=O)[C@H](CCCNC(=N)N)NC(=O)[C@H](C)NC(=O)[C@H](CO)NC(=O)[C@H](CC(C)C)NC(=O)[C@H](CCC(N)=O)NC(=O)[C@H](CC)NC(=O)[C@H](CC(C)C)NC(=O)[C@@H](NC(=O)[C@H](CCCCN)NC(=O)[C@H](CCCNC(=N)N)NC(=O)[C@H](Cc1ccc(OC)cc1)NC(=O)[C@H](CCCCNC(=N)N)NC(=O)[C@H](C)NC(=O)[C@@H](NC(=O)[C@H](Cc1c(F)c(F)c(F)c(F)c1F)NC(=O)[C@@H](NC(=O)[C@H](C)NC(=O)[C@H](CC(=O)O)NC(=O)[C@@H](CCCNC(=N)N)NC(=O)[C@H](Cc1ccc(O)cc1)NC(=O)CCCCCCCCCCCNC(=O)Cc1c(F)c(F)c(F)c(F)c1F)[C@@H](C)CC)[C@@H](C)O)C(C)C)[C@@H](C)CC)C(=O)N[C@H](CCCNC(=N)N)C(=O)N[C@@H](CCCCNC(=N)N)C(=O)NCCCCCCCCCCCC(N)=O [AVR-352, 5FPhAC-Ada-Tyr-DArg-Asp-Ala-Ile-5FPhe-Thr-Ala-Har-Tyr(Me)-Arg-Lys-Val-Leu-Abu-Gln-Leu-Ser-Ala-Arg-Lys-Leu-Leu-Gln-Asp-Ile-Nle-DArg-Har-Ada-NH2] ({Phenylacetyl(2,3,4,5,6-F5)-12Ado}-Y[dR]DAI[Phe(F5)]TA[hArg]Y(Me)RKVL[Abu]QLSARKLLQDI[Nle][dR][hArg][12Ado]-NH2)",1.68*,1738.3,48.6,522.7,56.2,4.85,307.7,35.9,199.9,58.4,1616.9,18.0,1448.4,26.5,–,–,–
"CCCC[C@H](NC(=O)[C@@H](NC(=O)[C@H](CC(=O)O)NC(=O)[C@H](CCC(N)=O)NC(=O)[C@H](CC(C)C)NC(=O)[C@H](CC(C)C)NC(=O)[C@H](CCCN)NC(=O)[C@H](Cc1c[nH]cn1)NC(=O)[C@H](C)NC(=O)[C@H](CO)NC(=O)[C@H](CC(C)C)NC(=O)[C@H](CCC(N)=O)NC(=O)[C@H](CC)NC(=O)[C@H](CC(C)C)NC(=O)[C@@H](NC(=O)[C@H](CCCN)NC(=O)[C@H](Cc1c[nH]cn1)NC(=O)[C@H](Cc1ccc(OC)cc1)NC(=O)[C@H](CCCCNC(=N)N)NC(=O)[C@H](C)NC(=O)[C@@H](NC(=O)[C@H](Cc1c(F)c(F)c(F)c(F)c1F)NC(=O)[C@@H](NC(=O)[C@H](C)NC(=O)[C@H](CC(=O)O)NC(=O)[C@@H](CCCNC(=N)N)NC(=O)[C@H](Cc1ccc(O)cc1)NC(=O)CCCCCCCCCCCNC(=O)Cc1ccccc1)[C@@H](C)CC)[C@@H](C)O)C(C)C)[C@@H](C)CC)C(=O)N[C@H](CCCNC(=N)N)C(=O)N[C@@H](CCCCNC(=N)N)C(N)=O [MIA-602, PhAC-Ada, Tyr D-Arg, Asp, Ala, Ile, 5FPhe, Thr, Ala, Har, Tyr(Me), His, Orn, Val, Leu, Abu, Gin, Leu, Ser, Ala, His, Om, Leu, Leu, Gin, Asp, Ile; Nle, D-Arg, Har NH2, reference compound] ({PhAc-12Ado}-Y[dR]DAI[Phe(F5)]TA[hArg]Y(Me)H[Orn]VL[Abu]QLSAH[Orn]LLQDI[Nle][dR][hArg]-NH2)",1,1602.7,52.6,529.4,55.7,1,–,–,267.2,44.4,–,–,1587.5,19.5,1,582.10,16.5
